According to patent US20260207602A1, “EGFR INHIBITORS” (Blueprint Medicines Corporation, priority 2022, published 2026):

Key:
[1] = target: intracellular phosphorylation of EGFR (Tyr1068) in PC-9 cells (Homo sapiens, UniProt P00533, DEL746-750); test: PC-9 pEGFR AlphaLISA assay; format: cell-based; details: 4 hours incubation, read-out: Phos EGFR PC9 IC50
Experimental: PC-9/A431 pEGFR AlphaLISA Assays
Inhibitory effects of compounds were evaluated in cellular assays that measure level of intracellular phosphorylation of EGFR in PC-9 (ECACC, #90071810, Milipore/Sigma) and A431 cell lines (ATCC, CRL-1555) using AlphaLISA sureFire ultra p-EGFR (Tyr1068) assay kit (PerkinElmer, ALSU-PEGFR-A50K). PC-9 cells were seeded at 3.125×10^5 cells/ml in 40 μL phenol-free DMEM supplemented with 10% FBS per well of a 384 well plate (Corning, 3764), while A431 were seeded at […] in 40 μL in phenol-free DMEM with 0.5% FBS. Cells were allowed to adhere overnight at 37° C./5% CO2. On the next day, compounds were transferred at 4-fold, 10-point serial dilution from compound source plate to cell plates using liquid handler Echo550 and were incubated at 37° C./5% CO2 for 4 hours. A431 cells were stimulated prior harvesting for 10 min with EGF at final concentration of 30 ng/ml in the incubator. Medium was removed from the plates and cells were lysed with 10 μL of 1× AlphaLISA lysis buffer (supplemented with 1× protease/phosphatase inhibitor cocktail) followed by shaking at 600 rpm for 30 minutes at room temperature. Lysates were transferred to Optiplate (Apricot designs) and 5 ul of 1× acceptor bead mix (prepared just before use) was added to each well followed by incubation at room temperature for 1.5-2 h in dark. Then 5 μL of freshly-made donor bead mix is added to each well under subdued lighting or green filters, was mixed well on the shaker and the plate was sealed and left for an overnight incubation at room temperature in dark. On the next day, the plate was read the Envision using standard AlphaLisa settings. Percent of pEGFR inhibition was plotted against log concentration of compounds to generate IC50 values.

EGFR (d746-750) = target: T1, EGFR (d746-750) (Homo sapiens, UniProt P00533, DEL746-750); test: Biochemical EGFR inhibition assay (Caliper mobility shift), EGFR (d746-750); details: biochemical Caliper mobility shift assay, EGFR Exon 19-del enzyme; read-out: Enz EGFR Exon 19-del IC50
T1 construct: purchased SignalChem E10-122JG
Experimental: (§1) Inhibitory effects of the compounds of the disclosure were measured in biochemical assays that measure the phosphorylation activity of EGFR enzyme phosphorylates 2.5 micromolar 5-FAM-[…]-CONH2 peptide substrate (ProfilerPro Kinase Peptide Substrate 22, PerkinElmer, Part #760366) in the presence of adenosine-5′-triphosphate (ATP) and varying concentrations of the test compound in 100 mM 2-[4-(2-hydroxyethyl)piperazin-1-yl]ethanesulfonic acid (HEPES), pH 7.5, 10 mM MgCl2, 0.015% Brij-35, 1 mM dithiothreitol (DTT), 1.0% dimehylsulfoxide (DMSO). Assays were performed at 1.0 mM ATP or at ATP Km of the EGFR enzymes. Reactions proceeded until between 10% to 20% total peptides were phosphorylated at room temperature (25° C.) and were terminated with 35 mM 2,2′,2″,2′″-(ethane-1,2-diyldinitrilo)tetraacetic acid (EDTA). Product was detected using the Caliper mobility shift detection method where the phosphorylated peptide (product) and substrate were electrophoretically separated and measured. Percent activity was plotted against log concentration of compound and points to generate an apparent IC50. The following enzyme forms of • EGFR were examples that were used in these assays: • EGFR WT (SignalChem, E10-112G) • EGFR L858R (SignalChem, E10-122BG) • EGFR (d746-750) (SignalChem, E10-122JG) • EGFR L858R C797S (SignalChem, E10-122ZG) • EGFR (d746-750) C797S (SignalChem, E10-122TG)

EGFR L858R = target: T2, EGFR L858R (Homo sapiens, UniProt P00533, L858R); test: Biochemical EGFR inhibition assay (Caliper mobility shift), EGFR L858R; details: biochemical Caliper mobility shift assay, EGFR L858R enzyme; read-out: Enz EGFR L858R IC50
T2 construct: purchased SignalChem E10-122BG
Experimental: as §1

Sequence of intracellular phosphorylation of EGFR (Tyr1068) in PC-9 cells (P00533 with tags, fused parts or gaps DEL746-750): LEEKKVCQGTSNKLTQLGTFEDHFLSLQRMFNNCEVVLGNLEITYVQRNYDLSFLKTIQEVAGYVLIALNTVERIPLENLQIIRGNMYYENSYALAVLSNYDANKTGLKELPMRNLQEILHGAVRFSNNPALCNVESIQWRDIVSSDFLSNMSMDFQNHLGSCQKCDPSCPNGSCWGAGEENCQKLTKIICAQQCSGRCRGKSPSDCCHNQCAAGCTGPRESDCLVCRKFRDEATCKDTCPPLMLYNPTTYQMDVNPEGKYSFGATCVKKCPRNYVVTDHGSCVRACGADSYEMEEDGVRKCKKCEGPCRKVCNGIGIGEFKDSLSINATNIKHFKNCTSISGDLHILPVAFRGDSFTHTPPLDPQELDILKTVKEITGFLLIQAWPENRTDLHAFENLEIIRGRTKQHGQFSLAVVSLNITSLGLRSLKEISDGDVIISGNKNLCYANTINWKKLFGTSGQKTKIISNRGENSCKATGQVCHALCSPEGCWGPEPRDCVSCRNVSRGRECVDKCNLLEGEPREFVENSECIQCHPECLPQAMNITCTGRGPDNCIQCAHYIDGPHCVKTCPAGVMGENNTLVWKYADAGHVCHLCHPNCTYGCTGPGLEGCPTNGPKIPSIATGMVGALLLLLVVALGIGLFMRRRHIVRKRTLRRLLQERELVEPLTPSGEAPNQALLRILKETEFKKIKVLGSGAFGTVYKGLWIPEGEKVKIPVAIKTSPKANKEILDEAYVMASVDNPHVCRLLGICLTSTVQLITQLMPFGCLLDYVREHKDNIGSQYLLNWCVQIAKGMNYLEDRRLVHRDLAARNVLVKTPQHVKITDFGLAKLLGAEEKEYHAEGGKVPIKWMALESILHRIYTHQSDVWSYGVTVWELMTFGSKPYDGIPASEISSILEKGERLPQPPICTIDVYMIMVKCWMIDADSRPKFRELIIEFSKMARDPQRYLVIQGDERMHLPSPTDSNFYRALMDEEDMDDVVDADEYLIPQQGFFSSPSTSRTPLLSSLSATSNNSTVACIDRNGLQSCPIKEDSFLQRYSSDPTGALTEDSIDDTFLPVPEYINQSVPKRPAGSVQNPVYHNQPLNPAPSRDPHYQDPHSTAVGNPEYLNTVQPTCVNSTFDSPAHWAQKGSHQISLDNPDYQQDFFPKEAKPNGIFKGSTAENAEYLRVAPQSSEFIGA
T1 sequence (P00533 with tags, fused parts or gaps DEL746-750 limits assumed): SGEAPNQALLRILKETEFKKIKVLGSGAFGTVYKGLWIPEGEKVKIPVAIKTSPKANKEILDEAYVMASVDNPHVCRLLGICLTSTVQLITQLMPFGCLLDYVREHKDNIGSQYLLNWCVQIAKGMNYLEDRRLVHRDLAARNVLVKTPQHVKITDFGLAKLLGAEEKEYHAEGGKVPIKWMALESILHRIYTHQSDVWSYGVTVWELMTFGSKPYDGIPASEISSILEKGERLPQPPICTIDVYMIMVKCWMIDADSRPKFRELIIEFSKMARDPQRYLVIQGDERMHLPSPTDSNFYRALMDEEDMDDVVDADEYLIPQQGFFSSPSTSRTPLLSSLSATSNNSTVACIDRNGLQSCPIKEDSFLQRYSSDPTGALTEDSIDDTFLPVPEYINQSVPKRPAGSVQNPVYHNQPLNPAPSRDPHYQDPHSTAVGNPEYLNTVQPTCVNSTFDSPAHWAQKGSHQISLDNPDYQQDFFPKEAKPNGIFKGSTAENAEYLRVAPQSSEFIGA
T2 sequence (P00533 25-1210 L858R): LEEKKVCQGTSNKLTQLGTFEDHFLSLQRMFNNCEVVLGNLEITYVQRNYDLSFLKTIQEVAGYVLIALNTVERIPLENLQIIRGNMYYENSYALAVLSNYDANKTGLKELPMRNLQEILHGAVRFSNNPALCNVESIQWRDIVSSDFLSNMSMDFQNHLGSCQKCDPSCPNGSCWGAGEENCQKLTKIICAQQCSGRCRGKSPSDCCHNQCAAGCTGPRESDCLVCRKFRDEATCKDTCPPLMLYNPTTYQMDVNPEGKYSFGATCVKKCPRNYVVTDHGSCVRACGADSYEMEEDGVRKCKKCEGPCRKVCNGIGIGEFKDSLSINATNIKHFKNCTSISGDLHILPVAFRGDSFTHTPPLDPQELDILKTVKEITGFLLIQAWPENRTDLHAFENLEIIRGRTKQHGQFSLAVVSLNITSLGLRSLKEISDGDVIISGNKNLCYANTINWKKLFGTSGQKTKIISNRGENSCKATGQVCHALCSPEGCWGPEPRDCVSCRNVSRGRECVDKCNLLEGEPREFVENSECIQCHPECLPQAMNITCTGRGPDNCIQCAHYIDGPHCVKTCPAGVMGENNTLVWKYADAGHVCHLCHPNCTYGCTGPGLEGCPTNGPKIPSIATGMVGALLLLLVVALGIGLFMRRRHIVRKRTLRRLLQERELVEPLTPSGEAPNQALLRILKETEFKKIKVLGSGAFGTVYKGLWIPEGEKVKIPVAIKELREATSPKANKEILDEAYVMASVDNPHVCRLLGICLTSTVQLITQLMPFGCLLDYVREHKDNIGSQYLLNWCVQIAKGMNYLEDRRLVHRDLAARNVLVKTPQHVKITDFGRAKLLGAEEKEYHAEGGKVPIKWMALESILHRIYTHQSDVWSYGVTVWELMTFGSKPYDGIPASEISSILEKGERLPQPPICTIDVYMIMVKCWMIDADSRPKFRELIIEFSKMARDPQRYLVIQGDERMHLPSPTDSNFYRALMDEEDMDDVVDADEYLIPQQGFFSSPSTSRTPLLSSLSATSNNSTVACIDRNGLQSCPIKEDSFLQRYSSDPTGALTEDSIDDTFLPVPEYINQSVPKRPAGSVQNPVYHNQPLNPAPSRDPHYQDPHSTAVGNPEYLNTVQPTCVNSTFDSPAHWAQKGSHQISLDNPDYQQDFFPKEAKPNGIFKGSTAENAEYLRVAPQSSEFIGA

Compound | IC50 [1] [nM] | IC50 (EGFR (d746-750)) [nM] | IC50 (EGFR L858R) [nM]
C[C@H](Oc1cc(-c2cnn(C)c2)cc2ncnc(Nc3ccc4ncsc4c3F)c12)C1COC1 (single isomer, unassigned) [Example 71, (S)-7-fluoro-N-(7-(1-methyl-1H-pyrazol-4-yl)-5-(1-(oxetan-3-yl)ethoxy)quinazolin-4-yl)benzo[d]thiazol-6-amine or (R)-7-fluoro-N-(7-(1-methyl-1H-pyrazol-4-yl)-5-(1-(oxetan-3-yl)ethoxy)quinazolin-4-yl)benzo[d]thiazol-6-amine] | ≤ 10 | ≤ 10 | ≤ 10
CN1CC[C@@H](F)[C@@H](Oc2cc(-c3cnn(C)c3)cc3ncnc(Nc4ccc5ncsc5c4)c23)C1 (single isomer, unassigned) [Example 162] | 10.1 to 50 | ≤ 10 | ≤ 10
Cn1cc(-c2cc(OCC(=O)N3CCOCC3)c3c(Nc4ccc5ncsc5c4F)ncnc3c2)cn1 [Example 276, 2-((4-((7-fluorobenzo[d]thiazol-6-yl)amino)-7-(1-methyl-1H-pyrazol-4-yl)quinazolin-5-yl)oxy)-1-morpholinoethan-1-one] | ≤ 10 | ≤ 10 | ≤ 10
CN1CC(Oc2cc(-c3cnn(C)c3)cc3ncnc(Nc4ccc5ncsc5c4)c23)C1 [Example 27, N-(7-(1-methyl-1H-pyrazol-4-yl)-5-((1-methylazetidin-3-yl)oxy)quinazolin-4-yl)benzo[d]thiazol-6-amine] | 10.1 to 50 | 10.1 to 50 | 10.1 to 50
Cn1cc(-c2cc(OC3CCOC3)c3c(Nc4ccc5ncsc5c4)ncnc3c2)cn1 (stereo not drawn) [Example 415, N-(7-(1-methyl-1H-pyrazol-4-yl)-5-((tetrahydrofuran-3-yl)oxy)quinazolin-4-yl)benzo[d]thiazol-6-amine] | 10.1 to 50 | ≤ 10 | ≤ 10
C[C@H](CO)n1cc(-c2cc(O[C@H](C)C3COC3)c3c(Nc4ccc5ncsc5c4)ncnc3c2)cn1 (single isomer, unassigned) [Example 297] | ≤ 10 | ≤ 10 | ≤ 10
CN1CCC(Oc2cc(-c3cnn(C)c3)cc3ncnc(Nc4ccc5scnc5c4)c23)CC1 [Example A03, N-(7-(1-methyl-1H-pyrazol-4-yl)-5-((1-methylpiperidin-4-yl)oxy)quinazolin-4-yl)benzo[d]thiazol-5-amine] | 10.1 to 50 | ≤ 10 | 10.1 to 50
Cn1cc(-c2cc(OC3CCN(CCO)CC3)c3c(Nc4ccc5ncsc5c4)ncnc3c2)cn1 [Example 312, 2-(4-((4-(benzo[d]thiazol-6-ylamino)-7-(1-methyl-1H-pyrazol-4-yl)quinazolin-5-yl)oxy)piperidin-1-yl)ethan-1-ol] | 10.1 to 50 | ≤ 10 | ≤ 10
CC[C@H](Oc1cc(-c2cnn(C)c2)cc2ncnc(Nc3ccc4ncsc4c3F)c12)C1CN(C)C1 (single isomer, unassigned) [Example 389] | 10.1 to 50 | ≤ 10 | 10.1 to 50
C[C@@H](CN(C)C)Oc1cc(-c2cnn(C)c2)cc2ncnc(Nc3ccc4ncsc4c3)c12 (single isomer, unassigned) [Example 159, (S)—N-(5-((1-(dimethylamino)propan-2-yl)oxy)-7-(1-methyl-1H-pyrazol-4-yl)quinazolin-4-yl)benzo[d]thiazol-6-amine or (R)—N-(5-((1-(dimethylamino)propan-2-yl)oxy)-7-(1-methyl-1H-pyrazol-4-yl)quinazolin-4-yl)benzo[d]thiazol-6-amine] | 10.1 to 50 | ≤ 10 | 10.1 to 50
COc1nn(C)cc1-c1cc(OC2CCN(C)CC2(F)F)c2c(Nc3ccc4ncsc4c3)ncnc2c1 (stereo not drawn) [Example 1, N-(5-((3,3-difluoro-1-methylpiperidin-4-yl)oxy)-7-(3-methoxy-1-methyl-1H-pyrazol-4-yl)quinazolin-4-yl)benzo[d]thiazol-6-amine] | ≤ 10 | ≤ 10 | ≤ 10
CN(C)CCOc1cc(-c2cnn(C)c2)cc2ncnc(Nc3ccc4ncsc4c3)c12 [Example A60, N-(5-(2-(dimethylamino)ethoxy)-7-(1-methyl-1H-pyrazol-4-yl)quinazolin-4-yl)benzo[d]thiazol-6-amine] | 10.1 to 50 | ≤ 10 | 10.1 to 50
CCN1CC[C@H](Oc2cc(-c3cnn(C)c3)cc3ncnc(Nc4ccc5ncsc5c4)c23)C1=O (single isomer, unassigned) [Example 59, (S)-3-((4-(benzo[d]thiazol-6-ylamino)-7-(1-methyl-1H-pyrazol-4-yl)quinazolin-5-yl)oxy)-1-ethylpyrrolidin-2-one or (R)-3-((4-(benzo[d]thiazol-6-ylamino)-7-(1-methyl-1H-pyrazol-4-yl)quinazolin-5-yl)oxy)-1-ethylpyrrolidin-2-one] | ≤ 10 | ≤ 10 | ≤ 10
COc1cc(-c2cc(OC3CCOCC3)c3c(Nc4ccc5ncsc5c4)ncnc3c2)n(C)n1 [Example 256, N-(7-(3-methoxy-1-methyl-1H-pyrazol-5-yl)-5-((tetrahydro-2H-pyran-4-yl)oxy)quinazolin-4-yl)benzo[d]thiazol-6-amine] | – | > 50.1 | > 50.1
COc1cc2ncnc(Nc3ccc4ncsc4c3)c2cc1N[C@@H]1CCN(C)C[C@H]1F [Example 301, N4-(benzo[d]thiazol-6-yl)-N6-((3R,4R)-3-fluoro-1-methylpiperidin-4-yl)-7-methoxyquinazoline-4,6-diamine] | – | ≤ 10 | ≤ 10
CN1CCN(C(=O)Oc2cc(OC3CCOCC3)c3c(Nc4ccc5ncsc5c4)ncnc3c2)CC1 [Example A11, 4-[(1,3-benzothiazol-6-yl)amino]-5-(oxan-4-yloxy)quinazolin-7-yl 4-methylpiperazine-1-carboxylate] | – | 10.1 to 50 | > 50.1
CN1CCN(c2cc(OC3CCOCC3)c3c(Nc4ccc5ncsc5c4)ncnc3c2)CC1(C)C [Example A58, N-(5-((tetrahydro-2H-pyran-4-yl)oxy)-7-(3,3,4-trimethylpiperazin-1-yl)quinazolin-4-yl)benzo[d]thiazol-6-amine] | – | > 50.1 | > 50.1
C[C@H]1[C@H](Oc2cc(-c3cnn(C)c3)cc3ncnc(Nc4ccc5ncsc5c4)c23)CN1C (single isomer, unassigned) [Example 322] | – | ≤ 10 | 10.1 to 50
COc1nn(C2CCN(C)CC2)cc1-c1cc(F)c2c(Nc3ccc4ncsc4c3F)ncnc2c1 [Example 226, 7-fluoro-N-(5-fluoro-7-(3-methoxy-1-(1-methylpiperidin-4-yl)-1H-pyrazol-4-yl)quinazolin-4-yl)benzo[d]thiazol-6-amine] | – | 10.1 to 50 | > 50.1
Cn1cc(-c2cc(OCC3CCOC3)c3c(Nc4ccc5ncsc5c4)ncnc3c2)cn1 (single isomer, unassigned) [Example 42] | 10.1 to 50 | – | ≤ 10
CN1CC[C@@](C)(COc2cc(-c3cnn(C)c3)cc3ncnc(Nc4ccc5ncsc5c4)c23)C1=O (single isomer, unassigned) [Example 56] | 10.1 to 50 | – | ≤ 10
CN1C[C@H](F)[C@H](Oc2cc(-c3cnn(C)c3)cc3ncnc(Nc4ccc5ncsc5c4)c23)C1 (single isomer, unassigned) [Example 381] | 10.1 to 50 | – | ≤ 10
